The record followed here is ChEMBL document CHEMBL1159083, “An octahydro-cyclopenta[c]pyrrole series of inhibitors of the type 1 glycine transporter” (Bioorg Med Chem Lett, 2010).

This series is described as follows: Half life in human microsomes. The series is classed as ADME, Microsome.
Consider `Cn1cnc(C(=O)N(Cc2ccc(F)c(C(F)(F)F)c2)[C@H]2C[C@H]3CNC[C@H]3C2)c1`, for which the half-life is more than 120 min.

`Cn1cnc(C(=O)N(Cc2cccc(OC(F)(F)F)c2)[C@H]2C[C@H]3CNC[C@H]3C2)c1` came in with a half-life of 50 min. Turning to `Cn1cnc(C(=O)N(Cc2cccc(OC(F)(F)F)c2)[C@@H]2C[C@@H]3CN(CCC(F)(F)F)C[C@@H]3C2)c1`, the half-life was less than 3.2 min. In the case of `Cn1cnc(C(=O)N(Cc2cccc(OC(F)(F)F)c2)[C@@H]2C[C@@H]3CN(CC(O)c4ccccc4)C[C@@H]3C2)c1` (stereo partly specified) it was 8.19 min; in that of `CN1C[C@H]2C[C@@H](N(Cc3cccc(OC(F)(F)F)c3)C(=O)c3cn(C)cn3)C[C@H]2C1`, 30.5 min; in that of `Cn1cnc(C(=O)N(Cc2ccc(F)c(OC3CCCC3)c2)[C@H]2C[C@H]3CNC[C@H]3C2)c1`, more than 111 min. In turn, `CC(C)Oc1cccc(CN(C(=O)c2cn(C)cn2)[C@H]2C[C@H]3CNC[C@H]3C2)c1` gave a half-life of more than 120 min. In the case of `CCN1C[C@H]2C[C@@H](N(Cc3ccc(F)c(C(F)(F)F)c3)C(=O)c3cn(C)cn3)C[C@H]2C1` it was more than 120 min. For `CN1C[C@H]2C[C@@H](N(Cc3ccc(F)c(OC4CCCC4)c3)C(=O)c3cn(C)cn3)C[C@H]2C1` the value was 78.1 min. For `Cn1cnc(C(=O)N(Cc2cccc(OC3CCCC3)c2)[C@H]2C[C@H]3CNC[C@H]3C2)c1` the value was more than 120 min. Regarding `CN1C[C@H]2C[C@@H](N(Cc3ccc(F)c(C(F)(F)F)c3)C(=O)c3cn(C)cn3)C[C@H]2C1`, the half-life was more than 120 min.

On to `COc1ccc(CN(C(=O)c2cn(C)cn2)[C@H]2C[C@H]3CNC[C@H]3C2)cc1OC1CCCC1`, for which the half-life is more than 120 min. For `CCN1C[C@H]2C[C@@H](N(Cc3cccc(OC(F)(F)F)c3)C(=O)c3cn(C)cn3)C[C@H]2C1` the value was 10 min; for `CC(F)CN1C[C@H]2C[C@@H](N(Cc3cccc(OC(F)(F)F)c3)C(=O)c3cn(C)cn3)C[C@H]2C1` (stereo partly specified), less than 3.2 min. In the case of `Cn1cnc(C(=O)N(Cc2cccc(OC(F)(F)F)c2)[C@@H]2C[C@@H]3CN(CC(C)(C)O)C[C@@H]3C2)c1` it was 7.06 min; in that of `Cn1cnc(C(=O)N(Cc2ccc(F)c(C(F)(F)F)c2)[C@@H]2C[C@H]3CNC[C@H]3C2)c1`, more than 120 min.
